Results: PubChem BioAssay AID1963875 (Molecular Pharmacology Branch, DTP, NCI, 2024)
pIC50: −log10 of the molar value.

System: KRAS-mutant PDC complex spheroid viability
Test: Anticancer human tumor 186277-243-T-J2-PDC patient-derived colon adenocarcinoma cell line growth inhibition [KRAS2]
Conditions: for pIC50: curve of first compound; for viability, T/C: stronger effect = lower value
Text: Multicellular complex tumor spheroid response to RAS pathway inhibitors in combination with a targeted agents in patient-derived cell lines with oncogenic KRAS variants from multiple cancer types
A high-throughput screen of multi-cell type tumor spheroids was designed to identify active combinations of targeted small molecules and KRAS pathway inhibitors. Complex spheroids include a stromal component modeled by human endothelial cells (HUVEC) and fibroblasts modeled by human mesenchymal stem cells (MSCs). The concentration ranges selected for each drug and investigational agent were based upon clinically achievable concentrations if the clinical Cmax of the agent was known.
Compounds. The drugs and investigational agents: BI-3406 (NSC825286), BAY-293 (NSC824723), batoprotafib (TNO155; NSC825523), sotorasib (AMG 510; NSC818433), MRTX1257 (NSC819558), elimusertib (BAY 1895344; NSC800525), molibresib (GSK525762; NSC774829), temuterkib (LY3214996; NSC803410), venetoclax (NSC766270), alisertib (NSC759677), olaparib (NSC753686), talazoparib (NSC767125), erdafitinib (NSC781556), ipatasertib (NSC767898), cabozantinib (NSC761068), nintedanib (NSC756659), abemaciclib (NSC768073), docetaxel (NSC628503), trametinib (NSC758246), and sapanisertib (NSC764658) were obtained from the National Cancer Institute (NCI) Developmental Therapeutics Program Chemical Repository. The FDA-approved anticancer drug set is available from the Developmental Therapeutics Program. […] The stock solutions were prepared in dimethyl sulfoxide (DMSO, Sigma-Aldrich, St. Louis, MO, cat. D2650) at 800-fold the tested concentration and stored at -70 degrees C prior to their use. All drugs and investigational agents were tested over a range starting from a high concentration at or near the clinical Cmax and decreasing in half-log increments. If the clinical Cmax for an agent had not been determined, the highest concentration tested was 10 microM.
Cell Culture. All cells were maintained in an incubator at 37 degrees C and 5% CO2 with 95% humidity. The PDC lines were cultured according to standard operating procedures established by the NCI PDMR (https://pdmr.cancer.gov/sops/default.htm). Briefly, all PDCs were thawed and cultured in Matrigel-coated flasks prepared with a working solution of 1X Ham's F-12 nutrient mix, without supplementation (Invitrogen, Waltham, MA, cat. 11765054), 100 U/mL penicillin-streptomycin (Invitrogen, cat. 15140122), and 2.5% Matrigel (Corning Inc., Corning, NY, cat. 354248) for the first three passages. All PDCs were cultured in complete DMEM/F-12 media containing advanced DMEM/F-12 (Invitrogen, cat. 12634028), 4.9% defined fetal bovine serum, heat inactivated (HyClone Laboratories Inc., Logan, UT, cat. SH30070.03HI), 389 ng/mL hydrocortisone (Sigma-Aldrich, cat. H4001), 9.7 ng/mL human EGF recombinant protein (Invitrogen, cat. PHG0313), 23.4 microg/mL adenine (Sigma-Aldrich, cat. A2786), 97.3 U/mL penicillin-streptomycin (Invitrogen, cat. 15140122), 1.9 mM L-glutamine (Invitrogen, cat. 25030081), and 9.7 microM Y-27632 dihydrochloride (Tocris Bioscience, Bristol, United Kingdom, cat. 1254). The PDCs were cultured in complete DMEM/F12 media without 9.7 microM Y-27632 dihydrochloride for at least two passages prior to the screen. The established cell line HOP-62 was cultured in RPMI 1640 medium, HEPES (Invitrogen, cat. 22400105) with 10% defined fetal bovine serum (HyClone Laboratories Inc., cat. SH30070.03) and 2 mM L-glutamine (Invitrogen, cat. 25030081). The pooled donor HUVEC were cultured in endothelial cell growth medium 2 (PromoCell, Heidelberg, Germany, cat. C-22011) and the hMSC were cultured in mesenchymal stem cell growth medium 2 (PromoCell, cat. C-28009). For all experiments, HUVEC and hMSC were used at passages </=5, while the malignant cell lines were used at passages </=15. […]

[1] = second compound 0.1 µM, first compound 0.0316 µM
[2] = second compound 0.316 µM, first compound 0.0316 µM
[3] = second compound 1 µM, first compound 0.0316 µM
[4] = second compound 3.16 µM, first compound 0.0316 µM
[5] = second compound 10 µM, first compound 0.0316 µM
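Wherever viability, T/C is given: viability read after seven days of compound exposure; 100% = DMSO vehicle-treated spheroids so lower means less viable.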

## CC(=O)Nc1cccc(-n2c(=O)n(C3CC3)c(=O)c3c(Nc4ccc(I)cc4F)n(C)c(=O)c(C)c32)c1 + C=CC(=O)N1CCN(c2nc(=O)n(-c3c(C)ccnc3C(C)C)c3nc(-c4c(O)cccc4F)c(F)cc23)C(C)C1
Second compound 0.1 µM
  pIC50: 9.20
Second compound 0.316 µM
  pIC50: 9.18
Second compound 1 µM
  pIC50: 9.23
Second compound 3.16 µM
  pIC50: 9.35
Second compound 10 µM
  pIC50: 9.96
Second compound 0.1 µM, first compound 0.0001 µM
  viability, T/C: 99.2%
Second compound 0.1 µM, first compound 0.000316 µM
  viability, T/C: 96.3%
Second compound 0.1 µM, first compound 0.001 µM
  viability, T/C: 18%
Second compound 0.1 µM, first compound 0.00316 µM
  viability, T/C: 8.67%
Second compound 0.1 µM, first compound 0.01 µM
  viability, T/C: 2.97%
[1]
  viability, T/C: 1.31%
Second compound 0.316 µM, first compound 0.0001 µM
  viability, T/C: 100%
Second compound 0.316 µM, first compound 0.000316 µM
  viability, T/C: 99.7%
Second compound 0.316 µM, first compound 0.001 µM
  viability, T/C: 21.9%
Second compound 0.316 µM, first compound 0.00316 µM
  viability, T/C: 9%
Second compound 0.316 µM, first compound 0.01 µM
  viability, T/C: 3.1%
[2]
  viability, T/C: 1.46%
Second compound 1 µM, first compound 0.0001 µM
  viability, T/C: 111%
Second compound 1 µM, first compound 0.000316 µM
  viability, T/C: 86.7%
Second compound 1 µM, first compound 0.001 µM
  viability, T/C: 17.4%
Second compound 1 µM, first compound 0.00316 µM
  viability, T/C: 7.6%
Second compound 1 µM, first compound 0.01 µM
  viability, T/C: 4.82%
[3]
  viability, T/C: 1.76%
Second compound 3.16 µM, first compound 0.0001 µM
  viability, T/C: 90.9%
Second compound 3.16 µM, first compound 0.000316 µM
  viability, T/C: 65.8%
Second compound 3.16 µM, first compound 0.001 µM
  viability, T/C: 11.9%
Second compound 3.16 µM, first compound 0.00316 µM
  viability, T/C: 9.32%
Second compound 3.16 µM, first compound 0.01 µM
  viability, T/C: 2.47%
[4]
  viability, T/C: 1.47%
Second compound 10 µM, first compound 0.0001 µM
  viability, T/C: 53.6%
Second compound 10 µM, first compound 0.000316 µM
  viability, T/C: 9.73%
Second compound 10 µM, first compound 0.001 µM
  viability, T/C: 3.83%
Second compound 10 µM, first compound 0.00316 µM
  viability, T/C: 4.23%
Second compound 10 µM, first compound 0.01 µM
  viability, T/C: 0.78%
[5]
  viability, T/C: 0.43%

## COc1cc(Nc2ncc3c(n2)-c2ccc(Cl)cc2C(c2c(F)cccc2OC)=NC3)ccc1C(=O)O + C=CC(=O)N1CCN(c2nc(=O)n(-c3c(C)ccnc3C(C)C)c3nc(-c4c(O)cccc4F)c(F)cc23)C(C)C1
Second compound 0.1 µM
  pIC50: > 7.50
Second compound 0.316 µM
  pIC50: > 7.50
Second compound 1 µM
  pIC50: > 7.50
Second compound 3.16 µM
  pIC50: > 7.50
Second compound 10 µM
  pIC50: > 7.50
[1]
  viability, T/C: 25.1%
Second compound 0.1 µM, first compound 0.316 µM
  viability, T/C: 22.8%
Second compound 0.1 µM, first compound 1 µM
  viability, T/C: 34%
Second compound 0.1 µM, first compound 3.16 µM
  viability, T/C: 50.2%
Second compound 0.1 µM, first compound 10 µM
  viability, T/C: 50.6%
[2]
  viability, T/C: 28.5%
Second compound 0.316 µM, first compound 0.1 µM
  viability, T/C: 29.5%
Second compound 0.316 µM, first compound 0.316 µM
  viability, T/C: 32.6%
Second compound 0.316 µM, first compound 1 µM
  viability, T/C: 38.1%
Second compound 0.316 µM, first compound 3.16 µM
  viability, T/C: 46.8%
Second compound 0.316 µM, first compound 10 µM
  viability, T/C: 49.2%
[3]
  viability, T/C: 23.2%
Second compound 1 µM, first compound 0.1 µM
  viability, T/C: 23.8%
Second compound 1 µM, first compound 0.316 µM
  viability, T/C: 32.7%
Second compound 1 µM, first compound 1 µM
  viability, T/C: 38.5%
Second compound 1 µM, first compound 3.16 µM
  viability, T/C: 50.1%
Second compound 1 µM, first compound 10 µM
  viability, T/C: 46.7%
[4]
  viability, T/C: 29.2%
Second compound 3.16 µM, first compound 0.1 µM
  viability, T/C: 30.8%
Second compound 3.16 µM, first compound 0.316 µM
  viability, T/C: 32.8%
Second compound 3.16 µM, first compound 1 µM
  viability, T/C: 36.9%
Second compound 3.16 µM, first compound 3.16 µM
  viability, T/C: 43%
Second compound 3.16 µM, first compound 10 µM
  viability, T/C: 35.7%
[5]
  viability, T/C: 20.7%
Second compound 10 µM, first compound 0.1 µM
  viability, T/C: 29.2%
Second compound 10 µM, first compound 0.316 µM
  viability, T/C: 21.1%
Second compound 10 µM, first compound 1 µM
  viability, T/C: 27.9%
Second compound 10 µM, first compound 3.16 µM
  viability, T/C: 27.7%
Second compound 10 µM, first compound 10 µM
  viability, T/C: 20.7%
